Reference: patent publication US10874650B1 (Ferrer Medical Innovations, LLC, priority 2020, dated 2020)
Where a name gives a salt, the structure may show the parent alone. Marks after values point to notes of the source that are not given here.

What was measured:
[1] = system: divergent influenza A strains and influenza B strain; conditions: cited from earlier work
[2] = system: avian H7N9 influenza virus; conditions: mice; cited from earlier work
[3] = system: SARS-CoV-2, USA-WA1/2020 strain; format: cell-based; conditions: nasal spray 90%, ethanol 67.5%

Row | Compound | inhibitory activity against influenza [1] | protection from fatal challenge [2] | Virus Titer ([3]; after 25 minutes incubation with virus at 22±2° C., average of three replicates ± standard deviation) [Log10 CCID50/mL] | Log Reduction Value ([3]; reduction of virus compared with virus control (water), 25 minutes incubation at 22±2° C.)
1 | CN(C)CCC(c1ccc(Cl)cc1)c1ccccn1 (stereo not shown) [Chlorpheniramine, chlorpheniramine maleate] | potent inhibitory activity | protects mice from fatal challenge | – | –
2 | CCO [Ethanol] | – | – | 1.0 ± 0.6 | 3.2***
